Data on 1 molecule can be found in article PMC4801399, “Impact of a CXCL12/CXCR4 Antagonist in Bleomycin (BLM) Induced Pulmonary Fibrosis and Carbon Tetrachloride (CCl4) Induced Hepatic Fibrosis in Mice” (PLoS ONE, 2016).

The nature of data set [1]: AMD070 PK study via IP injection: plasma, lung and liver concentration. Type of data set: in vivo, C57BL/6 mice. To be noted: IP 400 μg/mouse; for concentration at 6 h: six hours post administration; for Kp: C57BL/6, read-out: Tissue AUC/Plasma AUC. The protocol: At each endpoint, animals were euthanized with CO2 and blood collected via cardiac puncture. An aliquot was set aside at room temperature for hematology measurements with remaining blood processed for plasma for drug concentration determination. Lungs and livers were also collected and immediately frozen on dry ice and stored at -70°C until determination of drug concentration. AMD070 concentrations in mouse plasma were determined using protein precipitation extraction followed by UPLC-MS/MS analysis. Briefly, 100 μL aliquots of plasma were transferred to individual wells of an Isolute PPT+ (Biotage) array plate containing 300 μL of 0.1% formic acid (FA) in acetonitrile (ACN). […] The sample residue was then reconstituted into 200 μL of 0.1/5/95 FA/ACN/H2O (v/v/v) and analyzed using reverse phase chromatography (gradient elution) combined with multiple reaction monitoring acquisition (MRM). The mobile phases consisted of 0.1% FA in H2O and 0.1% FA in ACN. AMD070 was extracted from lung and liver tissue by homogenization under basic conditions followed by liquid-liquid extraction in tert-butyl methyl ether (TBME) and ethyl acetate respectively. In summary, 50 mg of lung or liver tissue pieces were cut, weighed, and transferred to homogenization tubes. 25 μL of deionized water for lung and 10 μL for liver were added to each tube, followed by the addition of zirconium (Zr) homogenization beads. The samples were homogenized for approximately 20 seconds in the BeadBeater, followed by 1 minute of centrifugation at room temperature at 13,520 rcf. 200 μL of 1 N NaOH was then transferred to each tube, followed by a second homogenization/centrifugation cycle as described above. […] The dried residue was reconstituted into 0.1/5/95 TFA/ACN/H2O and analyzed using reverse phase chromatography (gradient elution) combined with MRM acquisition in positive electrospray mode (ES+). The mobile phases consisted of 0.1% TFA in H2O and 0.1% TFA in ACN.

For another data set, the system named is CXCR4. More on the design: method as in PMID 20297846. Conditions: cited from earlier work.

Where two headings read alike, the source gives them in different places.

Usually Cmax stands for the maximum level reached in the sampled fluid or tissue. By Tmax is commonly meant the time at which the peak concentration occurs. The AUC is the area under the concentration-time curve, a measure of exposure. As a reminder, the IC50 is the concentration that gives 50% inhibition. `NCCCCN(Cc1nc2ccccc2[nH]1)[C@H]1CCCc2cccnc21` [AMD070]: the Cmax turned out to be 14300 ng/g in data set [1] (C57BL/6, 400 ug, Liver); 6140 ng/g in data set [1] (C57BL/6, 400 ug, Lung); 770 ng/mL in data set [1] (C57BL/6, 400 ug, Plasma). The Tmax in data set [1] (C57BL/6, 400 ug, Liver) was 30 min; in data set [1] (C57BL/6, 400 ug, Lung), 30 min; in data set [1] (C57BL/6, 400 ug, Plasma), 30 min. For the same molecule, in data set [1] (C57BL/6, 400 ug, Plasma, read-out: AUC (all time points)), the AUC was determined as 1240 ng·h/mL. Further, the concentration at 6 h amounted to 6470 ng/g in data set [1] (C57BL/6, liver, read-out: liver concentration); 3740 ng/g in data set [1] (C57BL/6, lung, read-out: lung concentration); 45 ng/mL in data set [1] (C57BL/6, plasma, read-out: plasma concentration). In addition, the Kp was 90.7 in data set [1] (Liver) and 61.2 in data set [1] (Lung). Besides, in data set [1] (30 minutes post administration), the “liver concentration (peak)” value was 14.3 µg/g. In data set [1] (30 minutes post administration), the “lung concentration (peak)” value was found to be 6.14 µg/g. The “plasma concentration (peak)” value in data set [1] (30 minutes post administration) came to 770 ng/mL. Also, the “protein binding adjusted effective concentration (EC90)” value in the data set on CXCR4 (90% effectiveness) is 0.044 µg/mL. Besides, the IC50 with CXCR4 is 13 nM.
